Laboratory results as given in US20180265867A1, “NUCLEIC ACID MOLECULES WITH ENHANCED ACTIVITY” (priority 2015, published 2018).
d = 2'-deoxy (DNA); r = 2'-OH (RNA)

Columns and labels:
β-catenin = experiment: Western blot of β-catenin protein in MG63 cells; assay type: cell-based, human; settings: MG63, 50 nM, at 48 h, β-catenin cpRNA, no transfection reagent
Protocol: After 48 hours of transfection, cells were washed twice with ice-cold PBS and lysed in RIPA lysis buffer (50 mM Tris-HCl, pH 8.0, with 150 mM NaCl, 1.0% Igepal CA-630 (NP-40), 0.5% sodiumdeoxycholate, 0.1% SDS, and 1.0% protease inhibitor cocktail from SIGMA-ALDRICH®). Lysates were incubated on ice for 30 minutes and centrifuged at 10,000 rpm for 20 minutes to collect supernatant. Coomassie Plus—The Better Bradford Assay™ Reagent (Thermo Scientific) was used to measure protein concentrations. Thereafter, 20 μg of soluble protein was separated by SDS-PAGE and transferred to polyvinylidene difluoride membrane (Millipore). Primary antibodies against GAPDH (1:1000 dilution), β-catenin (1:1000 dilution; SIGMA-ALDRICH®), β-actin (1:1000; Cell Signaling Technology®) were used to probe the protein bands. Anti-Rabbit-HRP conjugated secondary antibodies (1:3000 dilution; R&D Systems®) were used to detect the primary antibodies, followed by the target protein visualization with EMD Millipore Immobilon™ Western Chemiluminescent HRP Substrate (ECL). […]
To further validate our results, we tested the gene knockdown efficiency of another gene CTNNB1 (β-catenin), which is expressed in MG63 cells. We performed a time course experiment (24, 48 and 72 h) by targeting CTNNB1 and GAPDH in MG63 cells and quantified the mRNA and protein levels using qRT-PCR and Western blot experiments respectively (FIG. 8).

CTNNB1 (β-catenin) = experiment: CTNNB1 knockdown time course in MG63 cells by qRT-PCR; assay type: cell-based, human; settings: MG63, 50 nM, 24, 48 and 72 h; β-catenin cpRNA without transfection reagent vs canonical siRNA with transfection reagent
Protocol: At 70% confluency, a day prior to transfection, the cells were seeded at a density of 35 000 cells in a 24-well cell culture plate to achieve 60-80% confluence at the day of transfection. Cell penetrating siRNAs (cpRNAs) of different lengths were transfected at 50 nM concentrations with Magnet Assisted Transfection (MATra-si) reagent for siRNAs (IBA GmbH, Göttingen, Germany) according to the manufacturers' protocols. Briefly, the siRNA was mixed with MATra-si reagent composed of supermagnetic ironoxide nanoparticles and incubated for 20 min. A complex was formed which was added to the cells to be transfected. A strong magnetic force was applied beneath the cells for 15 min. This forced the complex to be drawn into the cells by the magnetic field, and as a result the siRNA was delivered directly into the cytosol. […]
cDNA synthesis was performed in triplicate using total RNA reverse transcribed using High Capacity cDNA reverse transcription kit (Applied Biosystems, USA), with non-template control added to ensure a lack of signal in assay background. […] Data from samples with a Ct value equal to or below 35 were further analyzed. Samples were normalized relative to endogenous control and differences in cycle number thresholds were calculated using comparative quantitation 2^−ΔΔcT method (also called the ΔΔCT method), commonly used for analyzing siRNA induced gene knockdown efficiency. […]

dT5: GAPDH siRNA, sense SEQ ID NO: 3 with dT5 3′-overhang, antisense SEQ ID NO: 2 with dT2 (sense CCGAGCCACAUCGCUCAGATTTTT; antisense UCUGAGCGAUGUGGCUCGGTT; sense: sugars from the 5' end r19 d5, backbone not given here; antisense: sugars from the 5' end r19 d2, backbone not given here)
CTNNB1 protein level (β-catenin): complete knockout | CTNNB1 mRNA knockdown efficiency over time (CTNNB1 (β-catenin)): higher gene knockdown efficiency for over 72 hrs
